Source: PubChem BioAssay AID330 (DTP/NCI, 2004)
“And” between values parts separate entries of the source, which are not always exact repeats. Equal entries are not always repeated. Toxic doses and inconclusive results are not listed.

Test system: P388 leukemia ip, CD2F1 mice, survival T/C
Test: NCI In Vivo Anticancer Drug Screen. Data for tumor model P388 Leukemia (intraperitoneal) in CD2F1 (CDF1) mice
Conditions: endpoint: median survival time, higher = longer survival
Outline: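 Mice carrying the transplanted tumor received test compound or vehicle. Survival was recorded in each group, and the value is the treated-group measurement divided by that of the vehicle-treated control group.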

[1] = dose: 25.0 mg/kg/injection, schedule: Q04DX003 (ip), vehicle: saline
[2] = dose: 50.0 mg/kg/injection, schedule: Q04DX003 (ip), vehicle: saline
[3] = dose: 100.0 mg/kg/injection, schedule: Q04DX002 (ip), vehicle: Klucel (hydroxypropylcellulose) (HPC)
[4] = dose: 200.0 mg/kg/injection, schedule: Q04DX002 (ip), vehicle: Klucel (hydroxypropylcellulose) (HPC)
[5] = dose: 100.0 mg/kg/injection, schedule: Q01DX009 (ip), vehicle: saline with Tween-80
[6] = dose: 400.0 mg/kg/injection, schedule: Q01DX009 (ip), vehicle: saline with Tween-80
[7] = dose: 25.0 mg/kg/injection, schedule: Q01DX009 (ip), vehicle: saline with Tween-80
[8] = dose: 50.0 mg/kg/injection, schedule: Q01DX009 (ip), vehicle: saline with Tween-80
[9] = dose: 100.0 mg/kg/injection, schedule: Q04DX003 (ip), vehicle: saline with Tween-80
[10] = dose: 100.0 mg/kg/injection, schedule: Q01DX001 (ip), vehicle: Klucel (hydroxypropylcellulose) (HPC)
[11] = dose: 200.0 mg/kg/injection, schedule: Q01DX001 (ip), vehicle: Klucel (hydroxypropylcellulose) (HPC)
[12] = dose: 200.0 mg/kg/injection, schedule: Q04DX003 (ip), vehicle: saline with Tween-80
[13] = dose: 400.0 mg/kg/injection, schedule: Q04DX003 (ip), vehicle: saline with Tween-80
[14] = dose: 60.0 mg/kg/injection, schedule: Q01DX005 (ip), vehicle: saline
[15] = dose: 60.0 mg/kg/injection, schedule: Q01DX005 (ip), vehicle: saline with Tween-80
[16] = dose: 120.0 mg/kg/injection, schedule: Q01DX005 (ip), vehicle: saline with Tween-80
[17] = dose: 240.0 mg/kg/injection, schedule: Q01DX005 (ip), vehicle: saline with Tween-80

COc1cccc2c1C(=O)c1c(O)c3c(c(O)c1C2=O)CC(O)(C(C)=O)CC3OC1CC(N=CN(C)C)C(O)C(C)O1 (configuration not stated)
T/C (dose: 3.13 mg/kg/injection, schedule: Q04DX003 (ip), vehicle: distilled water + Tween-80): 103 % of control | T/C (dose: 6.25 mg/kg/injection, schedule: Q04DX003 (ip), vehicle: distilled water + Tween-80): 110 % of control | T/C (dose: 12.5 mg/kg/injection, schedule: Q04DX003 (ip), vehicle: distilled water + Tween-80): 99 % of control and 119 % of control | T/C (dose: 50.0 mg/kg/injection, schedule: Q04DX003 (ip), vehicle: distilled water + Tween-80): 123 % of control

N=C(N)c1ccc(OCCCOc2ccc(C(=N)N)cc2Br)c(Br)c1
T/C (dose: 6.25 mg/kg/injection, schedule: Q04DX003 (ip), vehicle: saline): 100 % of control | T/C (dose: 12.5 mg/kg/injection, schedule: Q04DX003 (ip), vehicle: saline): 109 % of control | T/C (dose: 25.0 mg/kg/injection, schedule: Q01DX009 (ip), vehicle: saline): 160 % of control | T/C [1]: 113 % of control | T/C (dose: 33.0 mg/kg/injection, schedule: Q04DX003 (ip), vehicle: saline): 113 % of control | T/C (dose: 50.0 mg/kg/injection, schedule: Q01DX009 (ip), vehicle: saline): 90 % of control | T/C [2]: 113 % of control

O=c1c2cc(Br)ccc2nc2n1N=C(c1ccccc1)C(c1ccccc1)=NN2
T/C (dose: 50.0 mg/kg/injection, schedule: Q04DX002 (ip), vehicle: Klucel (hydroxypropylcellulose) (HPC)): 88 % of control | T/C [3]: 91 % of control | T/C [4]: 87 % of control

N=Cc1c(O)n(C2CCCCC2)c(=O)[nH]c1=O
T/C [5]: 90 % of control | T/C [6]: 95 % of control

O=C1C2CCC(C2)C1C(O)(C(F)(F)F)C(F)(F)F (configuration not stated)
T/C [7]: 109 % of control | T/C (dose: 25.0 mg/kg/injection, schedule: Q04DX003 (ip), vehicle: saline with Tween-80): 109 % of control | T/C [8]: 100 % of control | T/C (dose: 50.0 mg/kg/injection, schedule: Q04DX003 (ip), vehicle: saline with Tween-80): 100 % of control | T/C [5]: 104 % of control | T/C [9]: 90 % of control

CN(CCc1nnnn1C)/N=C\C=N\N(C)CCc1nnnn1C
T/C (dose: 50.0 mg/kg/injection, schedule: Q01DX001 (ip), vehicle: Klucel (hydroxypropylcellulose) (HPC)): 112 % of control | T/C [10]: 112 % of control | T/C [11]: 97 % of control

O=C1C=C(OCc2ccccc2)C(=O)C(OCc2ccccc2)=C1
T/C (dose: 50.0 mg/kg/injection, schedule: Q01DX005 (ip), vehicle: Klucel (hydroxypropylcellulose) (HPC)): 94 % of control | T/C (dose: 100.0 mg/kg/injection, schedule: Q01DX005 (ip), vehicle: Klucel (hydroxypropylcellulose) (HPC)): 100 % of control | T/C (dose: 200.0 mg/kg/injection, schedule: Q01DX005 (ip), vehicle: Klucel (hydroxypropylcellulose) (HPC)): 104 % of control

COc1cc([N+](=O)[O-])cc2c1OC1(SC(C)(C)C(C)CN1C)C(C)=C2 (configuration not stated)
T/C [9]: 105 % of control | T/C [12]: 100 % of control | T/C [13]: 95 % of control

COc1ccc(C(=O)C(C)Oc2ccccc2OC)cc1OC (configuration not stated)
T/C (dose: 10.0 mg/kg/injection, schedule: Q01DX005 (ip), vehicle: Klucel (hydroxypropylcellulose) (HPC)): 99 % of control | T/C (dose: 20.0 mg/kg/injection, schedule: Q01DX005 (ip), vehicle: Klucel (hydroxypropylcellulose) (HPC)): 100 % of control | T/C (dose: 40.0 mg/kg/injection, schedule: Q01DX005 (ip), vehicle: Klucel (hydroxypropylcellulose) (HPC)): 101 % of control

Cc1ccc(OP(=O)(Oc2ccc(C)cc2)Oc2ccc(C)cc2)cc1.Cc1ccc(OP(=O)(Oc2ccc(C)cc2)Oc2ccc(C)cc2)cc1.Cc1ccc(OP(=O)(Oc2ccc(C)cc2)Oc2ccc(C)cc2)cc1.Cc1ccc(OP(=O)(Oc2ccc(C)cc2)Oc2ccc(C)cc2)cc1.[Nd+3].[O-][Cl+3]([O-])([O-])O
T/C [10]: 90 % of control | T/C [11]: 91 % of control | T/C (dose: 400.0 mg/kg/injection, schedule: Q01DX001 (ip), vehicle: Klucel (hydroxypropylcellulose) (HPC)): 86 % of control

Cc1nn(C(N)=S)c(C)c1N=Nc1ccc(Cl)cc1Cl
T/C (dose: 50.0 mg/kg/injection, schedule: Q04DX002 (ip), vehicle: saline with Tween-80): 101 % of control and 105 % of control | T/C (dose: 600.0 mg/kg/injection, schedule: Q04DX002 (ip), vehicle: saline with Tween-80): 90 % of control

CCOP(=O)(OCC)C1CCC(=O)O1 (configuration not stated)
T/C (dose: 15.0 mg/kg/injection, schedule: Q01DX005 (ip), vehicle: saline): 100 % of control | T/C (dose: 30.0 mg/kg/injection, schedule: Q01DX005 (ip), vehicle: saline): 99 % of control | T/C [14]: 99 % of control and 94 % of control

CC(C(=O)N1c2ccccc2Sc2ccccc21)[N+](C)(C)C (configuration not stated)
T/C (dose: 12.5 mg/kg/injection, schedule: Q01DX009 (ip), vehicle: saline with Tween-80): 110 % of control | T/C [7]: 110 % of control | T/C [8]: 100 % of control

CN(C)c1ccc(C(=O)C2(Cl)CCCC(C)(C)C2)cc1 (configuration not stated)
T/C [3]: 102 % of control | T/C [4]: 99 % of control | T/C (dose: 400.0 mg/kg/injection, schedule: Q04DX002 (ip), vehicle: Klucel (hydroxypropylcellulose) (HPC)): 94 % of control

O=c1[nH]c2cc(Cl)ccc2nc1C1=C(O)c2ccccc2C1
T/C [15]: 89 % of control | T/C [16]: 89 % of control | T/C [17]: 110 % of control

C=C(C)C1CC=C(C)CC1 (configuration not stated)
T/C [5]: 95 % of control | T/C [9]: 100 % of control | T/C (dose: 200.0 mg/kg/injection, schedule: Q01DX009 (ip), vehicle: saline with Tween-80): 104 % of control | T/C [12]: 104 % of control | T/C [6]: 114 % of control | T/C [13]: 109 % of control

CCO[Si](CCSC(=O)N(CCCl)CCCl)(OCC)OCC
T/C (dose: 100.0 mg/kg/injection, schedule: Q04DX002 (ip), vehicle: saline with Tween-80): 99 % of control | T/C (dose: 200.0 mg/kg/injection, schedule: Q04DX002 (ip), vehicle: saline with Tween-80): 98 % of control | T/C (dose: 400.0 mg/kg/injection, schedule: Q04DX002 (ip), vehicle: saline with Tween-80): 107 % of control

O=C1NC(=O)C2(CCCC2=Nc2ccc(Br)cc2)C2C=CN(Cc3ccccc3)C=C12 (configuration not stated)
T/C [1]: 107 % of control | T/C [2]: 107 % of control | T/C (dose: 100.0 mg/kg/injection, schedule: Q04DX003 (ip), vehicle: saline): 105 % of control and 110 % of control | T/C (dose: 200.0 mg/kg/injection, schedule: Q04DX003 (ip), vehicle: saline): 107 % of control

c1ccc(-n2cncn2)cc1
T/C [14]: 95 % of control | T/C (dose: 120.0 mg/kg/injection, schedule: Q01DX005 (ip), vehicle: saline): 100 % of control | T/C (dose: 240.0 mg/kg/injection, schedule: Q01DX005 (ip), vehicle: saline): 101 % of control

CCCCCCCCCCCCCC[N+]1(CC)CCOCC1
T/C (dose: 3.12 mg/kg/injection, schedule: Q01DX009 (ip), vehicle: saline): 119 % of control | T/C (dose: 6.25 mg/kg/injection, schedule: Q01DX009 (ip), vehicle: saline): 115 % of control | T/C (dose: 12.5 mg/kg/injection, schedule: Q01DX009 (ip), vehicle: saline): 123 % of control

O=C1C=C(SCCCC(=O)N2CCOCC2)C(=O)c2ccccc21
T/C (dose: 6.25 mg/kg/injection, schedule: Q04DX003 (ip), vehicle: Klucel (hydroxypropylcellulose) (HPC)): 107 % of control | T/C (dose: 12.5 mg/kg/injection, schedule: Q04DX003 (ip), vehicle: Klucel (hydroxypropylcellulose) (HPC)): 104 % of control

COc1ccc(N=Nc2ncc(N)nc2N)cc1
T/C (dose: 60.0 mg/kg/injection, schedule: Q01DX005 (ip), vehicle: Klucel (hydroxypropylcellulose) (HPC)): 107 % of control | T/C (dose: 120.0 mg/kg/injection, schedule: Q01DX005 (ip), vehicle: Klucel (hydroxypropylcellulose) (HPC)): 108 % of control | T/C (dose: 240.0 mg/kg/injection, schedule: Q01DX005 (ip), vehicle: Klucel (hydroxypropylcellulose) (HPC)): 96 % of control

Nc1ncnc2c1c(-c1ccccc1)cn2-c1ccc(Br)cc1
T/C [15]: 108 % of control | T/C [16]: 100 % of control | T/C [17]: 96 % of control

O=C(N/N=C/c1ccco1)c1ccc(OCc2nc3ccccc3[nH]2)cc1
T/C (dose: 25.0 mg/kg/injection, schedule: Q01DX005 (ip), vehicle: saline with Tween-80): 97 % of control | T/C (dose: 50.0 mg/kg/injection, schedule: Q01DX005 (ip), vehicle: saline with Tween-80): 94 % of control | T/C (dose: 100.0 mg/kg/injection, schedule: Q01DX005 (ip), vehicle: saline with Tween-80): 87 % of control | T/C (dose: 200.0 mg/kg/injection, schedule: Q01DX005 (ip), vehicle: saline with Tween-80): 94 % of control
